Measured values as given in PubChem BioAssay (NCI).
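Briefly, cells in 96-well plates were exposed to five compound concentrations for 48 h, and endpoints were estimated by linear interpolation. TGI: concentration producing complete growth inhibition.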

Tests used:
Test in all cases: growth of human tumour cells (NCI), 48 h
OVCAR-3 ovarian = test system: OVCAR-3 ovarian
NCI-H460 lung = test system: NCI-H460 lung
NCI-H226 lung = test system: NCI-H226 lung
OVCAR-5 ovarian = test system: OVCAR-5 ovarian
HOP-62 NSCLC = test system: HOP-62 NSCLC
T-47D breast = test system: T-47D breast
SN12C renal = test system: SN12C renal
ACHN renal = test system: ACHN renal
A549 NSCLC = test system: A549 NSCLC
OVCAR-8 ovarian = test system: OVCAR-8 ovarian
TK-10 renal = test system: TK-10 renal
SK-MEL-28 melanoma = test system: SK-MEL-28 melanoma
NCI-H23 lung = test system: NCI-H23 lung
RXF 393 renal = test system: RXF 393 renal
SNB-19 CNS = test system: SNB-19 CNS
MALME-3M melanoma = test system: MALME-3M melanoma
HL-60(TB) leukemia = test system: HL-60(TB) leukemia
NCI-H522 lung = test system: NCI-H522 lung
HT29 colon = test system: HT29 colon
HOP-92 NSCLC = test system: HOP-92 NSCLC
SNB-75 CNS = test system: SNB-75 CNS
DU-145 prostate = test system: DU-145 prostate
BT-549 breast = test system: BT-549 breast
SK-OV-3 ovarian = test system: SK-OV-3 ovarian
SR leukemia = test system: SR leukemia
COLO 205 colon = test system: COLO 205 colon
HCT-15 colon = test system: HCT-15 colon
UACC-257 melanoma = test system: UACC-257 melanoma
NCI/ADR-RES ovarian = test system: NCI/ADR-RES ovarian
MDA-MB-435 = test system: MDA-MB-435
PC-3 prostate = test system: PC-3 prostate
EKVX NSCLC = test system: EKVX NSCLC
SK-MEL-5 melanoma = test system: SK-MEL-5 melanoma
SF-539 CNS = test system: SF-539 CNS
SF-268 CNS = test system: SF-268 CNS
CAKI-1 renal = test system: CAKI-1 renal
OVCAR-4 ovarian = test system: OVCAR-4 ovarian
RPMI-8226 leukemia = test system: RPMI-8226 leukemia
SF-295 CNS = test system: SF-295 CNS
MOLT-4 leukemia = test system: MOLT-4 leukemia
HCC-2998 colon = test system: HCC-2998 colon
UACC-62 melanoma = test system: UACC-62 melanoma
MDA-MB-231 breast = test system: MDA-MB-231 breast
UO-31 renal = test system: UO-31 renal
KM12 colon = test system: KM12 colon
MCF7 breast = test system: MCF7 breast
IGROV1 ovarian = test system: IGROV1 ovarian
CCRF-CEM leukemia = test system: CCRF-CEM leukemia
U251 CNS = test system: U251 CNS
A498 renal = test system: A498 renal
786-0 renal = test system: 786-0 renal
LOX IMVI melanoma = test system: LOX IMVI melanoma
SK-MEL-2 melanoma = test system: SK-MEL-2 melanoma
M14 melanoma = test system: M14 melanoma
SW-620 colon = test system: SW-620 colon
K-562 leukemia = test system: K-562 leukemia
MDA-N = test system: MDA-N
HCT-116 colon = test system: HCT-116 colon
HS 578T breast = test system: HS 578T breast

Structure (SMILES): O=[N+]([O-])c1c(F)c(F)c2c(c1F)N(CCCCCl)c1ccccc1S2
- TGI (OVCAR-3 ovarian): 19.5 µM
- TGI (NCI-H460 lung): 9.91 µM
- TGI (NCI-H226 lung): 33.1 µM
- TGI (OVCAR-5 ovarian): 33.6 µM
- TGI (HOP-62 NSCLC): 38.3 µM
- TGI (T-47D breast): 27.7 µM
- TGI (SN12C renal): 20.2 µM
- TGI (ACHN renal): 30.4 µM
- TGI (A549 NSCLC): 31.8 µM
- TGI (OVCAR-8 ovarian): 11.3 µM
- TGI (TK-10 renal): 32.5 µM
- TGI (SK-MEL-28 melanoma): 10.9 µM
- TGI (NCI-H23 lung): 21.7 µM
- TGI (RXF 393 renal): 27.4 µM
- TGI (SNB-19 CNS): 19.5 µM
- TGI (MALME-3M melanoma): 31.4 µM
- TGI (HL-60(TB) leukemia): 5.7 µM
- TGI (NCI-H522 lung): 12.3 µM
- TGI (HT29 colon): 6.74 µM
- TGI (HOP-92 NSCLC): 39 µM
- TGI (SNB-75 CNS): 17.2 µM
- TGI (DU-145 prostate): 26.1 µM
- TGI (BT-549 breast): 28 µM
- TGI (SK-OV-3 ovarian): 34 µM
- TGI (SR leukemia): > 100 µM
- TGI (COLO 205 colon): 27.5 µM
- TGI (HCT-15 colon): 3.31 µM
- TGI (UACC-257 melanoma): 27.5 µM
- TGI (NCI/ADR-RES ovarian): 37.5 µM
- TGI (MDA-MB-435): 20.2 µM
- TGI (PC-3 prostate): 12.7 µM
- TGI (EKVX NSCLC): 41.3 µM
- TGI (SK-MEL-5 melanoma): 32.7 µM
- TGI (SF-539 CNS): 31.9 µM
- TGI (SF-268 CNS): 18.3 µM
- TGI (CAKI-1 renal): 19.3 µM
- TGI (OVCAR-4 ovarian): 21.2 µM
- TGI (RPMI-8226 leukemia): 20.8 µM
- TGI (SF-295 CNS): 31.1 µM
- TGI (MOLT-4 leukemia): > 21.6 µM
- TGI (HCC-2998 colon): 8.48 µM
- TGI (UACC-62 melanoma): 26.9 µM
- TGI (MDA-MB-231 breast): 21.9 µM
- TGI (UO-31 renal): 30.5 µM
- TGI (KM12 colon): 23.5 µM
- TGI (MCF7 breast): 11.9 µM
- TGI (IGROV1 ovarian): 5.36 µM
- TGI (CCRF-CEM leukemia): 6.35 µM
- TGI (U251 CNS): 25.3 µM
- TGI (A498 renal): 21.1 µM
- TGI (786-0 renal): 23.8 µM
- TGI (LOX IMVI melanoma): 3.06 µM
- TGI (SK-MEL-2 melanoma): 8.18 µM
- TGI (M14 melanoma): 18.2 µM
- TGI (SW-620 colon): 8.78 µM
- TGI (K-562 leukemia): 4.74 µM
- TGI (MDA-N): 28.9 µM
- TGI (HCT-116 colon): 11.2 µM
- TGI (HS 578T breast): 74.4 µM

Structure (SMILES): Cn1c(=S)c2[nH]c(SCCCc3ccccc3)nc2n(C)c1=O
- TGI (OVCAR-3 ovarian): > 100 µM
- TGI (NCI-H460 lung): 42.1 µM
- TGI (NCI-H226 lung): 81.1 µM
- TGI (OVCAR-5 ovarian): 93.3 µM
- TGI (HOP-62 NSCLC): > 100 µM
- TGI (T-47D breast): > 100 µM
- TGI (SN12C renal): > 100 µM
- TGI (ACHN renal): > 100 µM
- TGI (A549 NSCLC): 72 µM
- TGI (OVCAR-8 ovarian): > 100 µM
- TGI (TK-10 renal): 78.9 µM
- TGI (SK-MEL-28 melanoma): > 100 µM
- TGI (NCI-H23 lung): > 100 µM
- TGI (RXF 393 renal): > 100 µM
- TGI (SNB-19 CNS): 53.6 µM
- TGI (MALME-3M melanoma): > 100 µM
- TGI (HL-60(TB) leukemia): > 100 µM
- TGI (NCI-H522 lung): > 100 µM
- TGI (HT29 colon): > 100 µM
- TGI (HOP-92 NSCLC): > 100 µM
- TGI (SNB-75 CNS): 84.5 µM
- TGI (DU-145 prostate): > 100 µM
- TGI (BT-549 breast): > 100 µM
- TGI (SK-OV-3 ovarian): > 100 µM
- TGI (SR leukemia): 27.4 µM
- TGI (COLO 205 colon): 25.4 µM
- TGI (HCT-15 colon): > 100 µM
- TGI (UACC-257 melanoma): 44.8 µM
- TGI (NCI/ADR-RES ovarian): > 100 µM
- TGI (MDA-MB-435): > 100 µM
- TGI (PC-3 prostate): > 100 µM
- TGI (EKVX NSCLC): 79.3 µM
- TGI (SK-MEL-5 melanoma): 33.5 µM
- TGI (SF-539 CNS): > 100 µM
- TGI (SF-268 CNS): > 100 µM
- TGI (CAKI-1 renal): > 100 µM
- TGI (OVCAR-4 ovarian): > 100 µM
- TGI (RPMI-8226 leukemia): 92.6 µM
- TGI (SF-295 CNS): 79.9 µM
- TGI (MOLT-4 leukemia): > 100 µM
- TGI (UACC-62 melanoma): > 100 µM
- TGI (MDA-MB-231 breast): > 100 µM
- TGI (UO-31 renal): 64.4 µM
- TGI (KM12 colon): > 100 µM
- TGI (MCF7 breast): > 100 µM
- TGI (IGROV1 ovarian): > 100 µM
- TGI (CCRF-CEM leukemia): 49.8 µM
- TGI (U251 CNS): > 100 µM
- TGI (A498 renal): 49.1 µM
- TGI (786-0 renal): > 100 µM
- TGI (LOX IMVI melanoma): > 100 µM
- TGI (SK-MEL-2 melanoma): > 100 µM
- TGI (M14 melanoma): > 100 µM
- TGI (SW-620 colon): > 100 µM
- TGI (K-562 leukemia): > 100 µM
- TGI (MDA-N): > 100 µM
- TGI (HCT-116 colon): > 100 µM
- TGI (HS 578T breast): > 100 µM
